# Source: patent US6544989B2, “Benzazoles: benzoxazole, benzthiazole and benzimidazole derivatives” (Syngenta Limited, priority 1998, dated 2003)
# Test system: Erysiphe graminis f.sp. tritici
# Assay: Fungicidal test, Erysiphe graminis f.sp. tritici (ERYSGT) on wheat, PRCO
# Format: in vivo
# Settings: 1 d Prot/Foir; METHOD 2 (unbanded)
row,SMILES,ERYSGT 1 d Prot/Foir PRCO
1,CCCN(C(=O)Cc1ccc2oc(CC(C)(C)C)nc2c1)c1snc(C)c1Cl [15(D3)],55
2,CCOCN(C(=O)Cc1ccc2oc(CC(C)(C)C)nc2c1)c1snc(C)c1Cl [15(L3)],100
3,Cc1nsc(N(C(=O)Cc2ccc3oc(CC(C)(C)C)nc3c2)C(C)C)c1Cl [15(N3)],8
4,Cc1nsc(NC(=O)Cc2ccc3oc(CC4CC4)nc3c2)c1Cl [41(A3)],59
5,Cc1nsc(NC(=O)Cc2ccc3oc(C(F)(F)C(F)(F)C(F)(F)F)nc3c2)c1Cl [80(A3)],99
6,Cc1nsc(NC(=O)Cc2ccc3oc(CC#N)nc3c2)c1Cl [113(A3)],5

# Test system: Septoria nodorum
# Assay: Fungicidal test, Septoria nodorum (LEPTNO) on wheat, PRCO
# Format: in vivo
# Settings: METHOD 2 (unbanded)
row,SMILES,LEPTNO 1 d Prot/Foir PRCO
1,CCCN(C(=O)Cc1ccc2oc(CC(C)(C)C)nc2c1)c1snc(C)c1Cl [15(D3)],70
2,CCOCN(C(=O)Cc1ccc2oc(CC(C)(C)C)nc2c1)c1snc(C)c1Cl [15(L3)],40
3,Cc1nsc(N(C(=O)Cc2ccc3oc(CC(C)(C)C)nc3c2)C(C)C)c1Cl [15(N3)],−2
4,Cc1nsc(NC(=O)Cc2ccc3oc(CC4CC4)nc3c2)c1Cl [41(A3)],77
5,Cc1nsc(NC(=O)Cc2ccc3oc(C(F)(F)C(F)(F)C(F)(F)F)nc3c2)c1Cl [80(A3)],−2
6,Cc1nsc(NC(=O)Cc2ccc3oc(CC#N)nc3c2)c1Cl [113(A3)],20

# Test system: Musca domestica
# Assay: not given
# Settings: 500 ppm by weight; knockdown assessed 15 minutes after treatment
row,SMILES,"MUSCDO AC = Musca domestica (knockdown), score"
1,CCCN(C(=O)Cc1ccc2oc(CC(C)(C)C)nc2c1)c1snc(C)c1Cl [15(D3)],0 (0 indicates less than 40% mortality)
2,CCOCN(C(=O)Cc1ccc2oc(CC(C)(C)C)nc2c1)c1snc(C)c1Cl [15(L3)],9 (9 indicates 80-100% mortality)
3,Cc1nsc(N(C(=O)Cc2ccc3oc(CC(C)(C)C)nc3c2)C(C)C)c1Cl [15(N3)],0 (0 indicates less than 40% mortality)
4,Cc1nsc(NC(=O)Cc2ccc3oc(CC4CC4)nc3c2)c1Cl [41(A3)],0 (0 indicates less than 40% mortality)
5,Cc1nsc(NC(=O)Cc2ccc3oc(C(F)(F)C(F)(F)C(F)(F)F)nc3c2)c1Cl [80(A3)],0 (0 indicates less than 40% mortality)
6,Cc1nsc(NC(=O)Cc2ccc3oc(CC#N)nc3c2)c1Cl [113(A3)],0 (0 indicates less than 40% mortality)

# Test system: Pyricularia oryzae
# Assay: not given
# Format: in vivo
# Settings: METHOD 2 (unbanded)
row,SMILES,PYRIOR 1 d Prot/Foir PRCO
1,CCCN(C(=O)Cc1ccc2oc(CC(C)(C)C)nc2c1)c1snc(C)c1Cl [15(D3)],27
2,CCOCN(C(=O)Cc1ccc2oc(CC(C)(C)C)nc2c1)c1snc(C)c1Cl [15(L3)],20
3,Cc1nsc(N(C(=O)Cc2ccc3oc(CC(C)(C)C)nc3c2)C(C)C)c1Cl [15(N3)],13
4,Cc1nsc(NC(=O)Cc2ccc3oc(CC4CC4)nc3c2)c1Cl [41(A3)],33
5,Cc1nsc(NC(=O)Cc2ccc3oc(C(F)(F)C(F)(F)C(F)(F)F)nc3c2)c1Cl [80(A3)],91
6,Cc1nsc(NC(=O)Cc2ccc3oc(CC#N)nc3c2)c1Cl [113(A3)],28

# Test system: Meloidogyne incognita
# Assay: Nematode test, J2 infective juveniles of Meloidogyne incognita, mortality
# Settings: 12.5 ppm; J2 infective juveniles suspended in solution; mortality after three days
row,SMILES,"MELGIN = Meloidogyne incognita, grading of mortality (score)"
1,CCCN(C(=O)Cc1ccc2oc(CC(C)(C)C)nc2c1)c1snc(C)c1Cl [15(D3)],0 (0 indicates less than 40% mortality)
2,CCOCN(C(=O)Cc1ccc2oc(CC(C)(C)C)nc2c1)c1snc(C)c1Cl [15(L3)],0 (0 indicates less than 40% mortality)
3,Cc1nsc(N(C(=O)Cc2ccc3oc(CC(C)(C)C)nc3c2)C(C)C)c1Cl [15(N3)],0 (0 indicates less than 40% mortality)
4,Cc1nsc(NC(=O)Cc2ccc3oc(CC4CC4)nc3c2)c1Cl [41(A3)],0 (0 indicates less than 40% mortality)
5,Cc1nsc(NC(=O)Cc2ccc3oc(C(F)(F)C(F)(F)C(F)(F)F)nc3c2)c1Cl [80(A3)],0 (0 indicates less than 40% mortality)
6,Cc1nsc(NC(=O)Cc2ccc3oc(CC#N)nc3c2)c1Cl [113(A3)],0 (0 indicates less than 40% mortality)

# Test system: Phytophthora infestans lycopersici
# Assay: not given
# Format: in vivo
# Settings: METHOD 2 (unbanded)
row,SMILES,PHYTIN 1 d Prot/Foir PRCO
1,CCCN(C(=O)Cc1ccc2oc(CC(C)(C)C)nc2c1)c1snc(C)c1Cl [15(D3)],99
2,CCOCN(C(=O)Cc1ccc2oc(CC(C)(C)C)nc2c1)c1snc(C)c1Cl [15(L3)],97
3,Cc1nsc(N(C(=O)Cc2ccc3oc(CC(C)(C)C)nc3c2)C(C)C)c1Cl [15(N3)],3
4,Cc1nsc(NC(=O)Cc2ccc3oc(CC4CC4)nc3c2)c1Cl [41(A3)],100
5,Cc1nsc(NC(=O)Cc2ccc3oc(C(F)(F)C(F)(F)C(F)(F)F)nc3c2)c1Cl [80(A3)],45
6,Cc1nsc(NC(=O)Cc2ccc3oc(CC#N)nc3c2)c1Cl [113(A3)],38

# Test system: Venturia inaequalis
# Assay: Fungicidal test, Venturia inaequalis (VENTIN) on apples, PRCO
# Format: in vivo
# Settings: METHOD 2 (unbanded)
row,SMILES,VENTIN 1 d Prot/Foir PRCO
1,CCCN(C(=O)Cc1ccc2oc(CC(C)(C)C)nc2c1)c1snc(C)c1Cl [15(D3)],−14
2,CCOCN(C(=O)Cc1ccc2oc(CC(C)(C)C)nc2c1)c1snc(C)c1Cl [15(L3)],−21
3,Cc1nsc(N(C(=O)Cc2ccc3oc(CC(C)(C)C)nc3c2)C(C)C)c1Cl [15(N3)],3
4,Cc1nsc(NC(=O)Cc2ccc3oc(CC4CC4)nc3c2)c1Cl [41(A3)],50
5,Cc1nsc(NC(=O)Cc2ccc3oc(C(F)(F)C(F)(F)C(F)(F)F)nc3c2)c1Cl [80(A3)],−8
6,Cc1nsc(NC(=O)Cc2ccc3oc(CC#N)nc3c2)c1Cl [113(A3)],8

# Test system: Puccinia recondita
# Assay: Fungicidal test, Puccinia recondita (PUCCRT) on wheat, PRCO
# Format: in vivo
# Settings: METHOD 2 (unbanded)
row,SMILES,PUCCRT 1 d Prot/Foir PRCO
1,CCCN(C(=O)Cc1ccc2oc(CC(C)(C)C)nc2c1)c1snc(C)c1Cl [15(D3)],25
2,CCOCN(C(=O)Cc1ccc2oc(CC(C)(C)C)nc2c1)c1snc(C)c1Cl [15(L3)],17
3,Cc1nsc(N(C(=O)Cc2ccc3oc(CC(C)(C)C)nc3c2)C(C)C)c1Cl [15(N3)],3
4,Cc1nsc(NC(=O)Cc2ccc3oc(CC4CC4)nc3c2)c1Cl [41(A3)],98
5,Cc1nsc(NC(=O)Cc2ccc3oc(C(F)(F)C(F)(F)C(F)(F)F)nc3c2)c1Cl [80(A3)],100
6,Cc1nsc(NC(=O)Cc2ccc3oc(CC#N)nc3c2)c1Cl [113(A3)],41

# Test system: Uncinula necator
# Assay: Fungicidal test, Uncinula necator (UNCINE) on vines, PRCO
# Format: in vivo
# Settings: METHOD 2 (unbanded)
row,SMILES,UNCINE 1 d Prot/Foir PRCO
1,CCCN(C(=O)Cc1ccc2oc(CC(C)(C)C)nc2c1)c1snc(C)c1Cl [15(D3)],100
2,CCOCN(C(=O)Cc1ccc2oc(CC(C)(C)C)nc2c1)c1snc(C)c1Cl [15(L3)],99
3,Cc1nsc(N(C(=O)Cc2ccc3oc(CC(C)(C)C)nc3c2)C(C)C)c1Cl [15(N3)],87
4,Cc1nsc(NC(=O)Cc2ccc3oc(CC4CC4)nc3c2)c1Cl [41(A3)],91
5,Cc1nsc(NC(=O)Cc2ccc3oc(C(F)(F)C(F)(F)C(F)(F)F)nc3c2)c1Cl [80(A3)],100
6,Cc1nsc(NC(=O)Cc2ccc3oc(CC#N)nc3c2)c1Cl [113(A3)],21
